Results published in patent US12251445B2, “Gamma-hydroxybutyrate delivering compounds and processes for making and using them” (Zevra Therapeutics, Inc., priority 2022, dated 2025).

Assay: Pharmacokinetics of GHB in plasma after oral gavage of GHB delivering compounds in rats
Conditions: vehicle water, mean conjugate/mean comparator
[1] = molar equivalent of 100 mg/kg NaGHB
[2] = dose equivalent to 80 mg/kg NaGHB

| SMILES | % AUC0-4 hr vs study comparator sodium oxybate [1] | % Cmax vs study comparator sodium oxybate [1] | % AUC0-4 hr vs study comparator sodium oxybate [2] | % Cmax vs study comparator sodium oxybate [2] |
| --- | --- | --- | --- | --- |
| O=C1CCCO1 [GBL] | 27% | 70% |  |  |
| CCOC(=O)OCCCC(=O)O [O-(ethoxycarbonyl)-GHB] |  |  | 54% | 51% |
